{"source": "paper PMC6368403", "about": "“Identification of a bilirubin receptor that may mediate a component of cholestatic itch” (eLife, 2019)", "key": {"Mrgprs": {"system": "Mrgprs", "test": "Ca2+ imaging screen of HEK293 cells transiently expressing other Mrgprs (MRGPRA3, MRGPRD, MRGPRX1, MRGPRX2 and others)", "type": "cell-based", "settings": "50 µM bilirubin, 12 Mrgprs screened", "experimental": "All cultured cells were maintained in DMEM supplemented with 10% FBS and 1% Penicillin/Streptomycin at 37°C, 5% CO2. All data included were generated from cells tested for mycoplasma and found to be negative. Cells were imaged in calcium imaging buffer (CIB; 10 mM HEPES, 1.2 mM NaHCO3, 130 mM NaCl, 3 mM KCl, 2.5 mM CaCl2, 0.6 mM MgCl2, 20 mM glucose, and 20 mM sucrose at pH 7.4 and 290–300 mOsm). To monitor changes in intracellular [Ca^2+] ([Ca^2+]i), cells were loaded with either Fura 2-AM (HEK293 cells) or Fluo 4-AM (DRG neurons and mast cells) for 30 min in the dark at 37°C in CIB just prior to imaging. With Fura 2-AM, emission at 510 nm was monitored from excitation at both 340 nm and 380 nm. With Fluo 4-AM, emission at 520 nm was monitored from excitation at 488 nm. Cells were identified as responding if the intracellular [Ca^2+] rose by either 50% compared to baseline or 50% compared to the [Ca^2+]i change assayed during addition of 50 mM KCl (neurons only). […]\nIn initial screens, HEK293 cells stably expressing the murine G-protein alpha-subunit Gα15, a unique Gα protein that non-selectively couples a large variety of GPCRs to phospholipase C ^30, were plated on poly-D-lysine-coated coverslips and transiently transfected with constructs encoding the MRGRPR of interest. […] Response was then monitored at 5 s intervals for an additional 60 s."}, "DRG neurons": {"system": "DRG neurons", "test": "Ca2+ imaging of cultured DRG neurons", "type": "cell-based, mouse", "settings": "for Percent activated neurons: 50 µM bilirubin (Fig 3H)", "experimental": "All cultured cells were maintained in DMEM supplemented with 10% FBS and 1% Penicillin/Streptomycin at 37°C, 5% CO2. […] Cells were imaged in calcium imaging buffer (CIB; 10 mM HEPES, 1.2 mM NaHCO3, 130 mM NaCl, 3 mM KCl, 2.5 mM CaCl2, 0.6 mM MgCl2, 20 mM glucose, and 20 mM sucrose at pH 7.4 and 290–300 mOsm). To monitor changes in intracellular [Ca^2+] ([Ca^2+]i), cells were loaded with either Fura 2-AM (HEK293 cells) or Fluo 4-AM (DRG neurons and mast cells) for 30 min in the dark at 37°C in CIB just prior to imaging. With Fura 2-AM, emission at 510 nm was monitored from excitation at both 340 nm and 380 nm. With Fluo 4-AM, emission at 520 nm was monitored from excitation at 488 nm. Cells were identified as responding if the intracellular [Ca^2+] rose by either 50% compared to baseline or 50% compared to the [Ca^2+]i change assayed during addition of 50 mM KCl (neurons only). Damaged, detached, high-baseline, and motion-activated cells were excluded from analysis.\nDRGs were incubated with Fluo-4 AM 24 hr after dissociation (native genotype) or 48 hr after dissociation (virally transduced). Unless otherwise noted, cells were imaged for 20 seconds to establish a baseline before compounds were added. After 30 s, a 2 min wash was applied before addition of another substances. At the end of every imaging trial, 50 mM KCl was added as a positive control. […] For ruthenium red inhibitor experiments, neurons were incubated with 10 µM ruthenium red for 5 min prior to imaging. Percentage activated was determined as earlier described.\nDRG neurons from all spinal levels were collected in cold DH10 media (90% Dulbecco’s modified Eagle’s medium (DMEM)/F-12, 10% FBS, penicillin (100 U/mL), and streptomycin (100 μg/mL)). DRGs were digested with a dispase (5 mg/ml)/collagenase type I (1 mg/ml) enzyme mixture at 37°C for 45 min. After trituration, cells were spun at 300 g and re-suspended in DH10 before being plated on glass coverslips coated with poly-D-lysine (0.5 mg/ml) and laminin (10 μg/ml, Invitrogen). DRGs were cultured with DH10 supplemented with 50 ng/mL NGF at 37°C."}, "DRG sensory neurons": {"system": "DRG sensory neurons", "test": "In vivo DRG calcium imaging in Pirt-Cre; lsl-GCaMP6s animals", "set-up": "species or system mouse", "settings": "5 μL of 100 μM bilirubin into the paw of GCaMP6s mice", "experimental": "Adult mice expressing Pirt-Cre and lox-stop-lox GCaMP6s were anesthetized by i.p. injection of chloral hydrate (20 μl/gram of 25 mg/ml solution). The back was shaved and disinfected with alcohol before application of ophthalmic ointment (Lacrilube; Allergen Pharmaceuticals). A dorsal laminectomy was performed below the lumbar enlargement (L5) targeting S1. During the procedure, care was taken to keep dura intact. A 2 cm incision was made at the lumbar enlargement. 0.1 mL of 1% lidocaine was injected into paravertebral muscles before dissection to expose L3–L5 vertebrae. Using rongeurs, the surface aspect of the L4 DRG transverse process was removed and the underlying DRG exposed. Mice were laid abdomen-down on a custom-designed microscope stage and the spinal column was secured at two sites using clamps. Images were acquired using a laser-scanning confocal microscope (Leica LSI microscope) equipped with a […] 0.5 NA macro dry objective and fast EM-CCD camera. Live images were acquired at 8 to 10 frames in frame-scan mode per 7–8 s, at depths of […] below the dura with the DRG in the focal plane. […]\nRaw image stacks were collected, deconvoluted, and imported into ImageJ (NIH). […] Calcium signaling amplitudes were expressed as Ft /F0 as a function of time. […]"}}, "data": [{"smiles": "C=CC1=C(C)/C(=C/c2[nH]c(Cc3[nH]c(/C=C4\\NC(=O)C(C)=C4C=C)c(C)c3CCC(=O)O)c(CCC(=O)O)c2C)NC1=O", "note": "[bilirubin, bilirubin IXα]", "values": [{"measurement": "Calcium response of other Mrgprs to bilirubin", "setting": "Mrgprs", "result": "No other Mrgpr among the 12 that we screened responded"}, {"measurement": "Percent activated neurons", "setting": "DRG neurons; A1 KO DRG", "result": 1.8, "unit": "%"}, {"measurement": "Percent activated neurons", "setting": "DRG neurons; Mrgpr-cluster KO DRG", "result": 1.9, "unit": "%"}, {"measurement": "Percent activated A3+ neurons", "setting": "DRG neurons; Tg(Mrgpra3-Cre);lsl-tdTomato neurons, 50 µM bilirubin (Fig 4D)", "result": 51.4, "unit": "%"}, {"measurement": "Percent activated neurons", "setting": "DRG neurons; WT DRG", "result": "approximately 5%"}, {"measurement": "Percent activated neurons", "setting": "DRG neurons; WT DRG, listed as Bilirubin", "result": 5.43, "unit": "%"}, {"measurement": "Activation of DRG sensory neurons in vivo", "setting": "DRG sensory neurons", "result": "activated numerous DRG sensory neurons"}]}]}
